# Measurements published in patent publication US9102630B2, “Crystals of salts of phenylalanine derivatives” (AJINOMOTO CO., INC., priority 2010, dated 2015).
# Tests used:
# Format in all cases: physicochemical
# [1] = Determination of solubility in water (HPLC of supernatant); details: 25° C., 15 min, 50 mg suspended in 10 mL distilled water
# Procedure: After 50 mg each of samples of the crystals prepared according to the foregoing methods and the crystal of the compound (I) in its free state was suspended in 10 mL of distilled water and then each suspension was stirred at room temperature for 15 minutes, the supernatant of each suspension was collected, then passed through a disposable filter of 0.2 μm for HPLC, 1 to 3.5 g of each filtered supernatant was dispensed, the volume thereof was increased up to 10 mL with a 90% aqueous solution of acetonitrile and finally the content of the compound (I) present in the supernatant was determined according to the HPLC while using the following conditions.
# (Conditions for the HPLC Analysis)
# (§1) Device Used: LC-10A Series (available from Shimadzu Corporation);
# (§2) Column: Inertsil (available from GL Science Company) ODS-24.5 mm×150 mm, 5 μm, 40° C.;
# (§3) Flow Rate: 1 mL/min, UV at 254 nm, 10 μL Injection;
# (§4) Eluting Solution A: 0.1% TFA (trifluoroacetic acid)/water;
# (§5) Eluting Solution B: 0.1% TFA/MeCN;
# (§6) Gradient Program: 0→25 min (B: 0→90%).
# [2] = Determination of storage stability (accelerated test, HPLC); details: 40° C., 75% RH, 2M (two months)
# Procedure: The crystal of a salt of the compound represented by the formula (I) was inspected for the storage stability, when it was stored at 40° C., 75% RH over two months, according to the following method. The results observed for preferred crystals, i.e., forms Cl1, Br1, Br2, Ms1 and Ms3 crystals, among others, are summarized in the following Table 2. The data listed in Table 2 indicate that the crystals of the compound (I) in their preferred crystalline forms according to the present invention are particularly excellent in their storage stability.
# The storage stability of each sample, which had been stored in a depository at 40° C., 75% RH over two months, was determined according to the HPLC analysis method.
# More specifically, about 25 mg each of the crystals of the compound represented by the formula (I) was dispensed into a 50 mL volume measuring flask and then dissolved in a 90% aqueous solution of acetonitrile containing 0.1% TFA and the storage stability of the resulting solution was determined by the HPLC analysis under the following conditions.
# (Conditions for HPLC Analysis)
# as §1, §2, §3, §4, §5, §6
# [3] = Determination of adsorption-desorption of water vapor; details: isothermal water vapor adsorption-desorption, 25° C.
# Procedure: The crystals of the present invention were inspected for their water vapor adsorption-desorption ability using BELLSORP-aqua3 available from Nippon Bell Co., Ltd. More specifically, about 300 mg of the compound represented by the formula (I) was dispensed into a measuring tube, dried at 50° C. for 30 minutes and the amount of water vapor adsorbed on or desorbed from the crystal was determined under the following conditions:
# Adsorption Temperature: 25° C.; Equilibration Time: 500 sec; Saturated Vapor Pressure: 3.169 kPa;
# Excessively Introduced Amount: 0.2 or 1.0 cm^3 (STP)/g; Tolerance for Increase or Decrease of Adsorbed Amount: 0.2 or 1.0 cm^3 (STP)/g.
compound,measurement,setting,value
COC(=O)[C@H](Cc1ccc(-n2c(=O)c3cc(N(C)C)ccc3n(C)c2=O)cc1)NC(=O)c1c(Cl)cccc1Cl [Form Br1],Solubility in Water,[1]; listed as HBr salt (Form Br1),120 µg/mL
same,"Accelerated Test, Stability: initial sample still in existence",[2],99.05% of the initial sample was still in existence.
COC(=O)[C@H](Cc1ccc(-n2c(=O)c3cc(N(C)C)ccc3n(C)c2=O)cc1)NC(=O)c1c(Cl)cccc1Cl [Form Br2],Solubility in Water,[1]; listed as HBr salt (Form Br2),123 µg/mL
same,"Accelerated Test, Stability: initial sample still in existence",[2],98.13% of the initial sample was still in existence and
same,change in crystalline state at a high humidity,[3],only a very slight change in its crystalline state
COC(=O)[C@H](Cc1ccc(-n2c(=O)c3cc(N(C)C)ccc3n(C)c2=O)cc1)NC(=O)c1c(Cl)cccc1Cl [Form Cl1],Solubility in Water,[1]; listed as Hydrochloride (Form Cl1),122 µg/mL
same,"Accelerated Test, Stability: initial sample still in existence",[2],99.03% of the initial sample was still in existence.
same,change in crystalline state at a high humidity,[3],only a very slight change in its crystalline state
COC(=O)[C@H](Cc1ccc(-n2c(=O)c3cc(N(C)C)ccc3n(C)c2=O)cc1)NC(=O)c1c(Cl)cccc1Cl [Form Cl2],Solubility in Water,[1]; listed as Hydrochloride (Form Cl2),101 µg/mL
COC(=O)[C@H](Cc1ccc(-n2c(=O)c3cc(N(C)C)ccc3n(C)c2=O)cc1)NC(=O)c1c(Cl)cccc1Cl [Form Cl3],Solubility in Water,[1]; listed as Hydrochloride (Form Cl3),102 µg/mL
COC(=O)[C@H](Cc1ccc(-n2c(=O)c3cc(N(C)C)ccc3n(C)c2=O)cc1)NC(=O)c1c(Cl)cccc1Cl [Form Cl5],Solubility in Water,[1]; listed as Hydrochloride (Form Cl5),91 µg/mL
COC(=O)[C@H](Cc1ccc(-n2c(=O)c3cc(N(C)C)ccc3n(C)c2=O)cc1)NC(=O)c1c(Cl)cccc1Cl [Form Ms1],Solubility in Water,[1]; listed as Methane-sulfonate (Form Ms1),102 µg/mL
same,"Accelerated Test, Stability: initial sample still in existence",[2],99.06% of the initial sample was still in existence.
same,change in crystalline state at a high humidity,[3],only a very slight change in its crystalline state
COC(=O)[C@H](Cc1ccc(-n2c(=O)c3cc(N(C)C)ccc3n(C)c2=O)cc1)NC(=O)c1c(Cl)cccc1Cl [Form Ms2],Solubility in Water,[1]; listed as Methane-sulfonate (Form Ms2),115 µg/mL
COC(=O)[C@H](Cc1ccc(-n2c(=O)c3cc(N(C)C)ccc3n(C)c2=O)cc1)NC(=O)c1c(Cl)cccc1Cl [Form Ms3],Solubility in Water,[1]; listed as Methane-sulfonate (Form Ms3),109 µg/mL
same,"Accelerated Test, Stability: initial sample still in existence",[2],97.41% of the initial sample was still in existence and
COC(=O)[C@H](Cc1ccc(-n2c(=O)c3cc(N(C)C)ccc3n(C)c2=O)cc1)NC(=O)c1c(Cl)cccc1Cl [Form Ms4],Solubility in Water,[1]; listed as Methane-sulfonate (Form Ms4),94 µg/mL
COC(=O)[C@H](Cc1ccc(-n2c(=O)c3cc(N(C)C)ccc3n(C)c2=O)cc1)NC(=O)c1c(Cl)cccc1Cl [Form N1],Solubility in Water,[1]; listed as Nitrate (Form N1),110 µg/mL
COC(=O)[C@H](Cc1ccc(-n2c(=O)c3cc(N(C)C)ccc3n(C)c2=O)cc1)NC(=O)c1c(Cl)cccc1Cl [Form N2],Solubility in Water,[1]; listed as Nitrate (Form N2),128 µg/mL
COC(=O)[C@H](Cc1ccc(-n2c(=O)c3cc(N(C)C)ccc3n(C)c2=O)cc1)NC(=O)c1c(Cl)cccc1Cl [Form S1],Solubility in Water,[1]; listed as Sulfate (Form S1),104 µg/mL
COC(=O)[C@H](Cc1ccc(-n2c(=O)c3cc(N(C)C)ccc3n(C)c2=O)cc1)NC(=O)c1c(Cl)cccc1Cl [Form S2],Solubility in Water,[1]; listed as Sulfate (Form S2),129 µg/mL
COC(=O)[C@H](Cc1ccc(-n2c(=O)c3cc(N(C)C)ccc3n(C)c2=O)cc1)NC(=O)c1c(Cl)cccc1Cl [Form S3],Solubility in Water,[1]; listed as Sulfate (Form S3),119 µg/mL
COC(=O)[C@H](Cc1ccc(-n2c(=O)c3cc(N(C)C)ccc3n(C)c2=O)cc1)NC(=O)c1c(Cl)cccc1Cl [Form Ts1],Solubility in Water,[1]; listed as Toluene-sulfonate (Form Ts1),97 µg/mL
COC(=O)[C@H](Cc1ccc(-n2c(=O)c3cc(N(C)C)ccc3n(C)c2=O)cc1)NC(=O)c1c(Cl)cccc1Cl [Free State],Solubility in Water,[1],0.12 µg/mL
